Reference: publication PMC9481151, “Discovery of new symmetrical and asymmetrical nitrile-containing 1,4-dihydropyridine derivatives as dual kinases and P-glycoprotein inhibitors: synthesis, in vitro assays, and in silico studies” (Journal of Enzyme Inhibition and Medicinal Chemistry, 2022)

Assays:
SK-MEL-5 = test: NCI single dose (10 µM) SRB screen; format: cell-based, human; details: melanoma, 48 h
UACC-257 = test: NCI single dose (10 µM) SRB screen; format: cell-based, human; details: melanoma, 48 h
UACC-62 = test: NCI single dose (10 µM) SRB screen; format: cell-based, human; details: melanoma, 48 h
IGROV1 = test: NCI single dose (10 µM) SRB screen; format: cell-based, human; details: ovarian cancer, 48 h
OVCAR-3 = test: NCI single dose (10 µM) SRB screen; format: cell-based, human; details: ovarian cancer, 48 h
OVCAR-4 = test: NCI single dose (10 µM) SRB screen; format: cell-based, human; details: ovarian cancer, 48 h
OVCAR-5 = test: NCI single dose (10 µM) SRB screen; format: cell-based, human; details: ovarian cancer, 48 h
OVCAR-8 = test: NCI single dose (10 µM) SRB screen; format: cell-based, human; details: ovarian cancer, 48 h
NCI/ADR-RES = test: NCI single dose (10 µM) SRB screen; format: cell-based, human; details: ovarian cancer, 48 h
SK-OV-3 = test: NCI single dose (10 µM) SRB screen; format: cell-based, human; details: ovarian cancer, 48 h
786-0 = test: NCI single dose (10 µM) SRB screen; format: cell-based, human; details: renal cancer, 48 h
A498 = test: NCI single dose (10 µM) SRB screen; format: cell-based, human; details: renal cancer, 48 h
ACHN = test: NCI single dose (10 µM) SRB screen; format: cell-based, human; details: renal cancer, 48 h
CAKI-1 = test: NCI single dose (10 µM) SRB screen; format: cell-based, human; details: renal cancer, 48 h
RXF 393 = test: NCI single dose (10 µM) SRB screen; format: cell-based, human; details: renal cancer, 48 h
SN12C = test: NCI single dose (10 µM) SRB screen; format: cell-based, human; details: renal cancer, 48 h
TK-10 = test: NCI single dose (10 µM) SRB screen; format: cell-based, human; details: renal cancer, 48 h
UO-31 = test: NCI single dose (10 µM) SRB screen; format: cell-based, human; details: renal cancer, 48 h
PC-3 = test: NCI single dose (10 µM) SRB screen; format: cell-based, human; details: prostate cancer, 48 h
DU-145 = test: NCI single dose (10 µM) SRB screen; format: cell-based, human; details: prostate cancer, 48 h
MCF7 = test: NCI single dose (10 µM) SRB screen; format: cell-based, human; details: breast cancer, 48 h
MDA-MB-231 = test: NCI single dose (10 µM) SRB screen; format: cell-based, human; details: breast cancer, 48 h
HS578T = test: NCI single dose (10 µM) SRB screen; format: cell-based, human; details: breast cancer, 48 h
BT-549 = test: NCI single dose (10 µM) SRB screen; format: cell-based, human; details: breast cancer, 48 h
T-47D = test: NCI single dose (10 µM) SRB screen; format: cell-based, human; details: breast cancer, 48 h
MDA-MB-468 = test: NCI single dose (10 µM) SRB screen; format: cell-based, human; details: breast cancer, 48 h
NCI 60 cancer cell lines = test: NCI single dose (10 µM) SRB screen, mean over panel; format: cell-based, human; details: mean over 60 cell lines, 48 h
Staphylococcus aureus = test: Agar well diffusion method; details: relative to ciprofloxacin
Bacillus subtilis = test: Agar well diffusion method; details: relative to ciprofloxacin
Escherichia coli = test: Agar well diffusion method; details: relative to ciprofloxacin
Pseudomonas aeruginosa = test: Agar well diffusion method; details: relative to ciprofloxacin
Candida albicans = test: Agar well diffusion method; details: relative to clotrimazole
Aspergillus flavus = test: Agar well diffusion method

Structure (SMILES): COC(=O)C1=C(C)NC(C)=C(C(=O)OC(C)(C)C)C1c1cccc(C#N)c1 (racemic) [Compound 2c, (±)-3-Tert-butyl 5-Methyl 4-(3-cyanophenyl)-2,6-dimethyl-1,4-dihydropyridine-3,5-dicarboxylate]
- GI% SK-MEL-5 (SK-MEL-5): – (Only GI% ≥ 10 are shown)
- GI% UACC-257 (UACC-257): – (Only GI% ≥ 10 are shown)
- GI% UACC-62 (UACC-62): – (Only GI% ≥ 10 are shown)
- GI% IGROV1 (IGROV1): – (Only GI% ≥ 10 are shown)
- GI% OVCAR-3 (OVCAR-3): – (Only GI% ≥ 10 are shown)
- GI% OVCAR-4 (OVCAR-4): – (Only GI% ≥ 10 are shown)
- GI% OVCAR-5 (OVCAR-5): – (Only GI% ≥ 10 are shown)
- GI% OVCAR-8 (OVCAR-8): – (Only GI% ≥ 10 are shown)
- GI% NCI/ADR-RES (NCI/ADR-RES): – (Only GI% ≥ 10 are shown)
- GI% SK-OV-3 (SK-OV-3): – (Only GI% ≥ 10 are shown)
- GI% 786-0 (786-0): – (Only GI% ≥ 10 are shown)
- GI% A498 (A498): – (Only GI% ≥ 10 are shown)
- GI% ACHN (ACHN): – (Only GI% ≥ 10 are shown)
- GI% CAKI-1 (CAKI-1): 15%
- GI% RXF 393 (RXF 393): – (Only GI% ≥ 10 are shown)
- GI% SN12C (SN12C): – (Only GI% ≥ 10 are shown)
- GI% TK-10 (TK-10): – (Only GI% ≥ 10 are shown)
- GI% UO-31 (UO-31): – (Only GI% ≥ 10 are shown)
- GI% PC-3 (PC-3): 18%
- GI% DU-145 (DU-145): – (Only GI% ≥ 10 are shown)
- GI% MCF7 (MCF7): 13%
- GI% MDA-MB-231 (MDA-MB-231): – (Only GI% ≥ 10 are shown)
- GI% HS578T (HS578T): – (Only GI% ≥ 10 are shown)
- GI% BT-549 (BT-549): – (Only GI% ≥ 10 are shown)
- GI% T-47D (T-47D): 12%
- GI% MDA-MB-468 (MDA-MB-468): – (Only GI% ≥ 10 are shown)
- Mean GI% (NCI 60 cancer cell lines): 0%
- melting point: 157 to 159 °C
- % activity index, S. aureus (Staphylococcus aureus): – (Values below 25 are of limited value and not shown as they refer either to inactive or non-diffusing compounds)
- % activity index, B. subtilis (Bacillus subtilis): – (Values below 25 are of limited value and not shown as they refer either to inactive or non-diffusing compounds)
- % activity index, E. coli (Escherichia coli): – (Values below 25 are of limited value and not shown as they refer either to inactive or non-diffusing compounds)
- % activity index, P. aeruginosa (Pseudomonas aeruginosa): – (Values below 25 are of limited value and not shown as they refer either to inactive or non-diffusing compounds)
- % activity index, C. albicans (Candida albicans): – (Values below 25 are of limited value and not shown as they refer either to inactive or non-diffusing compounds)
- zone of inhibition at 1000 µg/mL (Aspergillus flavus; Aspergillus flavus, 24 h, read-out: Diameter of inhibition zone, A. flavus): 7 mm
- % activity index, A. flavus (Aspergillus flavus; relative to clotrimazole): 28%
